# According to article PMC6072853 (Frontiers in Pharmacology, 2018):
# Columns and labels:
# HeLa cells = assay: Lactate dehydrogenase (LDH) cytotoxicity assay; format: cell-based, human; conditions: 24 h
# Protocol: The direct cytotoxic effects of the test agents were determined by a lactate dehydrogenase (LDH) assay. Cells were seeded onto 96-well microplates at a density of 5,000 cells/well and were incubated overnight, after which the medium containing the test compounds at proper concentrations was added. After incubation for 24 h, the activity of LDH released by the treated cells was determined by a commercially available colorimetric kit according to the manufacturer’s instructions (Hoffmann-La Roche Ltd., Basel, Switzerland). Untreated cells served as control, while detergent Triton X-100 and CIS were used as reference agents.
# MDA-MB-231 = assay: MTT antiproliferative assay, MDA-MB-231; format: cell-based, human; conditions: Homo sapiens, 72 h, read-out: Growth inhibition (%) ± SEM; for inhibition at 10 µM: MDA-MB-231, 10 μM; for inhibition at 30 µM: MDA-MB-231, 30 μM
# From the text: (§1) Gynecological cancer cell lines, including ovarian (A2780), cervical (HeLa), and breast cancer cell lines (MCF7, T47D, MDA-MB-231, and MDA-MB-361) were purchased from the European Collection of Authenticated Cell Cultures (ECACC, Salisbury, United Kingdom). Additional cervical cell lines (SiHa and C33A) and a non-cancerous immortalized, mammary gland epithelial cell line (hTERT-HME1) were purchased from LGC Standards GmbH (Wesel, Germany). Non-cancerous fibroblast cells (MRC-5) were also obtained from the ECACC. All cells were cultured in minimal essential medium supplemented with 10% fetal bovine serum, 1% non-essential amino acids, and 1% antibiotic-antimycotic mixture, in humidified air containing 5% CO2 at 37°C. Immortalized hTERT-HME1 cells were maintained in serum-free mammary epithelial cell growth medium (MEGM) supplemented with insulin, human epidermal growth factor (hEGF), hydrocortisone, bovine pituitary extract, and an antibiotic-antimycotic mixture. All the medium and supplements were purchased from Lonza Group Ltd. (Basel, Switzerland).
# (§2) The antiproliferative properties of the compounds were assessed by an MTT assay ([Mosmann, 1983]). Cells were seeded onto 96-well microplates at a density of 10,000 cells/well (MDA-MB-361 and C33A) or 5,000 cells/well (all other cell lines). After an overnight incubation, fresh medium containing the test compounds (at a concentration of 10 or 30 μM) was added. After incubation for 72 h at 37°C in humidified air, [3-(4,5-dimethylthiazol-2-yl)-2,5-diphenyltetrazolium bromide] (MTT) solution (5 mg/mL) was added. Purple formazan crystals were formed by the living cells during a 4 h contact period, which were assayed by spectrophotometry after having been dissolved in 100 μL DMSO. Untreated cells served as control, and cisplatin (CIS) (Ebewe Pharma GmbH, Unterach, Austria) was used as a reference compound. […] Two independent measurements were performed with five parallel wells. To present preliminary data concerning tumor selectivity of the potent compounds, the procedure was repeated on MRC-5 fibroblast and hTERT-HME1 immortalized mammary gland epithelial cells under the same experimental conditions.
# caspase-9 = assay: Caspase-9 activity colorimetric assay; format: cell-based, human; conditions: HeLa
# Protocol: (§3) In order to detect, whether the test compounds induce programmed cell death, the activity of caspase-3 was determined by a colorimetric assay. To elucidate the exact pathway of apoptosis, activities of caspase-8 and caspase-9 were additionally determined by colorimetric kits. In all cases approximately 12 million cells were treated with appropriate concentrations of the compounds for 24 or 72 h. After the treatment, the cells were scraped and the enzyme activities were determined by means of colorimetric assays mentioned above. All kits were purchased from Abnova Corp. (Taipei, Taiwan) and used in accordance with the instructions of the manufacturer.
# HeLa = assay: MTT antiproliferative assay, HeLa; format: cell-based, human; conditions: Homo sapiens, 72 h; for inhibition at 10 µM / inhibition at 30 µM: read-out: Growth inhibition (%) ± SEM; for IC50: read-out: calculated IC50 value
# From the text: as §1, §2
# MCF-7 = assay: MTT antiproliferative assay, MCF-7; format: cell-based, human; conditions: Homo sapiens, MCF7, 72 h, read-out: Growth inhibition (%) ± SEM; for inhibition at 10 µM: MCF-7, 10 μM; for inhibition at 30 µM: MCF-7, 30 μM
# From the text: as §1, §2
# T47D = assay: MTT antiproliferative assay, T47D; format: cell-based, human; conditions: Homo sapiens, 72 h, read-out: Growth inhibition (%) ± SEM
# From the text: as §1, §2
# A2780 = assay: MTT antiproliferative assay, A2780; format: cell-based, human; conditions: Homo sapiens, 72 h, read-out: Growth inhibition (%) ± SEM; for inhibition at 10 µM: A2780, 10 μM; for inhibition at 30 µM: A2780, 30 μM
# From the text: as §1, §2
# caspase-8 = assay: Caspase-8 activity colorimetric assay; format: cell-based, human; conditions: HeLa
# Protocol: as §3
# SiHa = assay: MTT antiproliferative assay, SiHa; format: cell-based, human; conditions: Homo sapiens, 72 h, read-out: Growth inhibition (%) ± SEM
# From the text: as §1, §2
# MDA-MB-361 = assay: MTT antiproliferative assay, MDA-MB-361; format: cell-based, human; conditions: Homo sapiens, 72 h, read-out: Growth inhibition (%) ± SEM; for inhibition at 10 µM: MDA-MB-361, 10 μM; for inhibition at 30 µM: MDA-MB-361, 30 μM
# From the text: as §1, §2
# caspase-3 = assay: Caspase-3 activity colorimetric assay; format: cell-based, human; conditions: HeLa
# Protocol: as §3
# tubulin = assay: Tubulin polymerization assay (cell-free); format: biochemical; conditions: cell-free system, compared to untreated control
# Protocol: In order to determine the direct action of the test compounds on the microtubular system, an in vitro tubulin polymerization assay was performed using a commercially available kit (Cytoskeleton Inc., Denver, CO, United States) in accordance with the provider’s instructions. The assay reactions were performed on a pre-warmed (37°C), UV-transparent 96-well microplate. Ten microliters of the test solutions were placed on the wells supplemented with 2 mM MgCl2, 0.5 mM ethylene glycol tetraacetic acid (EGTA), 1 mM guanosine triphosphate (GTP) and 10.2% glycerol. Ten microliters of general tubulin buffer was used as untreated control, and paclitaxel (PAC) served as the reference compound. The polymerization reaction was initiated by adding 100 μL of 3.0 mg/mL tubulin in 80 mM PIPES, pH 6.9, to each sample. Absorbance of the samples was measured per minute, at 340 nm, using a 60-min kinetic measurement protocol. Each sample was prepared in two parallels. To characterize the process, polymerization curves were fitted to the measured data. The highest difference between the absorbances measured at two consecutive time points was regarded as Vmax (Δabsorbance/min) for the tested compound. A clinically applied reference agent, PAC was used at a relatively high concentration (10 μM) as recommended by the manufacturer. […]. […]
# hTERT-HME1 = assay: MTT assay, immortalized mammary gland epithelial cells hTERT-HME1; format: cell-based, human; conditions: Homo sapiens; for inhibition at 10 µM: hTERT-HME1, 10 μM; for inhibition at 10 µM / inhibition at 30 µM: 72 h, read-out: Growth inhibition (%) ± SEM; for inhibition at 30 µM: hTERT-HME1, 30 μM
# From the text: as §1, §2
SMILES,inhibition at 10 µM (MDA-MB-231),inhibition at 30 µM (MDA-MB-231),inhibition at 10 µM (HeLa),inhibition at 30 µM (HeLa),IC50 (HeLa),inhibition at 10 µM (MCF-7),inhibition at 30 µM (MCF-7),inhibition at 10 µM (T47D),inhibition at 30 µM (T47D),inhibition at 10 µM (A2780),inhibition at 30 µM (A2780),inhibition at 10 µM (SiHa),inhibition at 30 µM (SiHa),inhibition at 10 µM (MDA-MB-361),inhibition at 30 µM (MDA-MB-361),effect on tubulin polymerization (tubulin),inhibition at 10 µM (hTERT-HME1),inhibition at 30 µM (hTERT-HME1),further results
"C[C@]12CC[C@H]3[C@@H](CCC4=CC(=O)CC[C@@H]43)[C@@H]1CC[C@@H]2O [Compound 1, 19-nortestosterone, reference compound]",< 20%,21.4 ± 1.2%,99.5 ± 0.2%,99.5 ± 0.3%,650 nM,< 20%,< 20%,< 20%,< 20%,< 20%,< 20%,< 20%,20.7 ± 2.6%,< 20%,< 20%,significant acceleration of tubulin polymerization,16.9 ± 1.2%,37.1%,LDH release (HeLa cells; 1.5 μM): substantial LDH release; caspase-9 activity (caspase-9; 72 h): activated the initiator caspases; caspase-8 activity (caspase-8; 72 h): less pronounced; caspase-3 activity (caspase-3; 72 h): increased significantly
C[C@]12CC[C@H]3[C@@H](CCC4=CC(=O)CC[C@@H]43)[C@@H]1CC[C@H]2Cl [Compound 3],< 20%,< 20%,95.9 ± 0.3%,95.1 ± 0.5%,1210 nM,< 20%,36.9 ± 2%,< 20%,< 20%,< 20%,32.7 ± 1%,< 20%,26 ± 2.3%,< 20%,21.8 ± 2.5%,significant acceleration of tubulin polymerization,76.2 ± 0.5%,99.9 ± 0.1%,"LDH release (HeLa cells; 3.0 or 5.0 μM): significant; caspase-9 activity (caspase-9; 24 h): significantly elevated; caspase-8 activity (caspase-8; 24 h): no change; caspase-3 activity (caspase-3; 24 h, 5.0 μM): enhanced caspase-3 activity; IC50 (hTERT-HME1; hTERT-HME1, 72 h, read-out: calculated IC50 value): 4630 nM"
